From patent EP0670721B1, “DRUG FOR TREATMENT AND PROPHYLAXIS OF BONE AND JOINT DISEASES” (Fricker, Christian, priority 1993, dated 1995)

Assay: Oral treatment of bone and joint diseases with raised internal pressure (own controlled trials)
Type: in vivo, Menschen, Hund, Pferd
Settings: osteoarthrosis (human and veterinary), podotrochlosis of the horse
From the text: Erfindungsgemäß konnte festgestellt werden, daß bei degenerativen Gelenkserkrankungen in den Epiphysen bei am Gelenk beteiligten Knochen ein pathologisch erhöhter Innendruck vorliegt. Analog zur Pathophysiologie des Kompartmentsyndroms wird der intraossäre Druckanstieg durch eine Anreicherung von osmotisch aktiven Substanzen in Intestitium verursacht. In Anlehnung an die vorgestellte Pathophysiologie kann somit erstmals eine kausale Therapie für degenerative Gelenkserkrankungen bereitgestellt werden. Benzopyrone und Dobesilat-calcium vermögen durch Stabilisierung der Kapillarwände einerseits und durch Proteinresorption andererseits den Druck im erkrankten Kompartment abzubauen. Der Druckabbau ermöglicht in der Folge eine Normalisierung der Mikrozirkulation und somit eine Gesundung der betroffenen Gewebe. Wie eigene, kontrollierte Versuche zeigen, eignen sich Benzopyrone wie auch Dobesilat-Calcium zur kausalen Therapie dieser auf innerem Überdruck in Knochen und Gelenken beruhenden Erkrankungen. Dies trifft insbesondere in der Human- und Veterinärmedizin für den Problemkreis der Osteoarthrose und in der Veterinärmedizin für die Podotrochlose des Pferdes zu.
Das 5,6-α-Benzopyron wurde in der Tagesdosis von: • 1 - 4 mg/kg KGW beim Menschen, • 2 - 4 mg/kg KGW beim Hund und • 0,5 - 1 mg/kg KGW beim Pferd peroral verabreicht. […]

## O=S(=O)(O)c1cc(O)ccc1O [Dobesilat-Calcium]
  Eignung zur kausalen Therapie der auf innerem Überdruck in Knochen und Gelenken beruhenden Erkrankungen: eignen sich
